Measured values as given in PubChem BioAssay AID328 (DTP/NCI, 2004).
Where “and” joins values, the source holds several entries; their conditions need not be identical. Equal values may be shown once. Toxic doses and inconclusive results are not listed.

System: BDF1 mice, P388 leukemia ip, median survival T/C
Experiment: NCI In Vivo Anticancer Drug Screen. Data for tumor model P388 Leukemia (intraperitoneal) in B6D2F1 (BDF1) mice
Conditions: endpoint: median survival time, higher = longer survival
In short: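 In tumour-bearing mice, survival after compound treatment is set against the vehicle group and given as a quotient.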

[1] = dose: 100.0 mg/kg/injection, schedule: Q04DX003 (ip), vehicle: saline with Tween-80
[2] = dose: 200.0 mg/kg/injection, schedule: Q01DX009 (ip), vehicle: saline with Tween-80
[3] = dose: 100.0 mg/kg/injection, schedule: Q04DX003 (ip), vehicle: Klucel (hydroxypropylcellulose) (HPC)
[4] = dose: 200.0 mg/kg/injection, schedule: Q04DX003 (ip), vehicle: Klucel (hydroxypropylcellulose) (HPC)
[5] = dose: 400.0 mg/kg/injection, schedule: Q04DX003 (ip), vehicle: Klucel (hydroxypropylcellulose) (HPC)
[6] = dose: 50.0 mg/kg/injection, schedule: Q01DX009 (ip), vehicle: saline
[7] = dose: 100.0 mg/kg/injection, schedule: Q01DX009 (ip), vehicle: saline
[8] = dose: 50.0 mg/kg/injection, schedule: Q01DX009 (ip), vehicle: saline with Tween-80
[9] = dose: 100.0 mg/kg/injection, schedule: Q01DX009 (ip), vehicle: saline with Tween-80

CC[C@]1(O)C[C@H]2CN(CCc3c([nH]c4ccccc34)[C@@](C(=O)OC)(c3cc4c(cc3OC)N(C)[C@H]3[C@@](O)(C(=O)OC)[C@H](OC(C)=O)[C@]5(CC)C=CCN6CC[C@]43[C@@H]65)C2)C1
T/C (dose: 0.03 mg/kg/injection, schedule: Q03HX024 (ip), vehicle: saline): 185 % of control
T/C (dose: 0.06 mg/kg/injection, schedule: Q03HX016 (ip), vehicle: saline): 162 % of control
T/C (dose: 0.12 mg/kg/injection, schedule: Q01DX009 (ip), vehicle: saline): 166 % of control
T/C (dose: 0.12 mg/kg/injection, schedule: Q01DX009 (ip), vehicle: water): 252 % of control
T/C (dose: 0.12 mg/kg/injection, schedule: Q03HX016 (ip), vehicle: saline): 222 % of control
T/C (dose: 0.12 mg/kg/injection, schedule: Q03HX024 (ip), vehicle: saline): 222 % of control
T/C (dose: 0.25 mg/kg/injection, schedule: Q01DX009 (ip), vehicle: saline): 185 % of control
T/C (dose: 0.25 mg/kg/injection, schedule: Q01DX009 (ip), vehicle: water): 240 % of control
T/C (dose: 0.25 mg/kg/injection, schedule: Q01DX010 (ip), vehicle: water): 209 % of control
T/C (dose: 0.25 mg/kg/injection, schedule: Q03HX008 (ip), vehicle: saline): 185 % of control
T/C (dose: 0.25 mg/kg/injection, schedule: Q03HX016 (ip), vehicle: saline): 214 % of control
T/C (dose: 0.25 mg/kg/injection, schedule: Q04DX003 (ip), vehicle: saline): 166 % of control
T/C (dose: 0.5 mg/kg/injection, schedule: Q01DX009 (ip), vehicle: saline): 214 % of control
T/C (dose: 0.5 mg/kg/injection, schedule: Q01DX009 (ip), vehicle: water): 222 % of control
T/C (dose: 0.5 mg/kg/injection, schedule: Q01DX010 (ip), vehicle: water): 195 % of control
T/C (dose: 0.5 mg/kg/injection, schedule: Q04DX003 (ip), vehicle: saline): 196 % of control
T/C (dose: 0.5 mg/kg/injection, schedule: Q08DX002 (ip), vehicle: saline): 170 % of control
T/C (dose: 0.65 mg/kg/injection, schedule: Q04DX003 (ip), vehicle: saline): 200 % of control
T/C (dose: 1.0 mg/kg/injection, schedule: Q01DX009 (ip), vehicle: saline): 92 % of control
T/C (dose: 1.0 mg/kg/injection, schedule: Q03HX008 (ip), vehicle: saline): 200 % of control
T/C (dose: 1.0 mg/kg/injection, schedule: Q03HX016 (ip), vehicle: saline): 96 % of control
T/C (dose: 1.0 mg/kg/injection, schedule: Q04DX003 (ip), vehicle: saline): 214 % of control
T/C (dose: 1.0 mg/kg/injection, schedule: Q08DX002 (ip), vehicle: saline): 188 % of control
T/C (dose: 1.08 mg/kg/injection, schedule: Q04DX003 (ip), vehicle: saline): 193 % of control
T/C (dose: 1.8 mg/kg/injection, schedule: Q04DX003 (ip), vehicle: saline): 234 % of control
T/C (dose: 2.0 mg/kg/injection, schedule: Q01DX001 (ip), vehicle: saline): 162 % of control
T/C (dose: 2.0 mg/kg/injection, schedule: Q01DX001 (ip), vehicle: water): 150 % of control
T/C (dose: 2.0 mg/kg/injection, schedule: Q04DX003 (ip), vehicle: saline): 96 % of control
T/C (dose: 2.0 mg/kg/injection, schedule: Q08DX002 (ip), vehicle: saline): 214 % of control
T/C (dose: 3.0 mg/kg/injection, schedule: Q04DX003 (ip), vehicle: saline): 95 % of control
T/C (dose: 4.0 mg/kg/injection, schedule: Q01DX001 (ip), vehicle: saline): 185 % of control
T/C (dose: 4.0 mg/kg/injection, schedule: Q01DX001 (ip), vehicle: water): 161 % of control
T/C (dose: 4.0 mg/kg/injection, schedule: Q08DX002 (ip), vehicle: saline): 100 % of control
T/C (dose: 8.0 mg/kg/injection, schedule: Q01DX001 (ip), vehicle: saline): 177 % of control
T/C (dose: 8.0 mg/kg/injection, schedule: Q08DX002 (ip), vehicle: saline): 96 % of control
T/C (dose: 16.0 mg/kg/injection, schedule: Q01DX001 (ip), vehicle: saline): 188 % of control
T/C (dose: 625.0 micrograms/kg/injection, schedule: Q04DX003 (ip), vehicle: saline): 200 % of control
T/C (dose: 648.0 micrograms/kg/injection, schedule: Q04DX003 (ip), vehicle: saline): 180 % of control
T/C (dose: 1080.0 micrograms/kg/injection, schedule: Q04DX003 (ip), vehicle: saline): 195 % of control
T/C (dose: 1250.0 micrograms/kg/injection, schedule: Q04DX003 (ip), vehicle: saline): 238 % of control
T/C (dose: 1800.0 micrograms/kg/injection, schedule: Q04DX003 (ip), vehicle: saline): 190 % of control
T/C (dose: 2500.0 micrograms/kg/injection, schedule: Q04DX003 (ip), vehicle: saline): 230 % of control

O=C1c2cc(Cl)ccc2-c2c(Cl)cc(Cl)cc21
T/C [1]: 91 % of control
T/C [2]: 87 % of control
T/C (dose: 200.0 mg/kg/injection, schedule: Q04DX003 (ip), vehicle: saline with Tween-80): 100 % of control
T/C (dose: 400.0 mg/kg/injection, schedule: Q04DX003 (ip), vehicle: saline with Tween-80): 91 % of control

COc1ccc(NC(=O)c2ccccc2Cl)cc1
T/C (dose: 100.0 mg/kg/injection, schedule: Q01DX009 (ip), vehicle: Klucel (hydroxypropylcellulose) (HPC)): 100 % of control
T/C [3]: 104 % of control
T/C (dose: 200.0 mg/kg/injection, schedule: Q01DX009 (ip), vehicle: Klucel (hydroxypropylcellulose) (HPC)): 95 % of control
T/C [4]: 91 % of control
T/C (dose: 400.0 mg/kg/injection, schedule: Q01DX009 (ip), vehicle: Klucel (hydroxypropylcellulose) (HPC)): 104 % of control
T/C [5]: 112 % of control

CC1OC(OC2C(CO)OC(O[C@H]3CC[C@@]4(C)C(=CC[C@H]5[C@@H]6C[C@@H]7O[C@@]8(CC[C@H](C)CN8)[C@@H](C)[C@@H]7[C@@]6(C)CC[C@@H]54)C3)C(OC3OC(C)C(O)C(O)C3O)C2O)C(O)C(O)C1O (some centres not stated)
T/C (dose: 2.5 mg/kg/injection, schedule: Q01DX009 (ip), vehicle: water): 95 % of control and 100 % of control
T/C (dose: 5.0 mg/kg/injection, schedule: Q01DX009 (ip), vehicle: water): 109 % of control
T/C (dose: 10.0 mg/kg/injection, schedule: Q01DX009 (ip), vehicle: water): 100 % of control and 104 % of control
T/C (dose: 20.0 mg/kg/injection, schedule: Q01DX009 (ip), vehicle: water): 95 % of control and 100 % of control

CC(C)(CO)COC(=O)NC1=C(N2CC2)C(=O)C(NC(=O)OCC(C)(C)CO)=C(N2CC2)C1=O
T/C (dose: 0.75 mg/kg/injection, schedule: Q01DX009 (ip), vehicle: water): 151 % of control and 157 % of control
T/C (dose: 1.5 mg/kg/injection, schedule: Q01DX009 (ip), vehicle: water): 159 % of control and 178 % of control
T/C (dose: 3.0 mg/kg/injection, schedule: Q01DX009 (ip), vehicle: water): 181 % of control and 200 % of control
T/C (dose: 6.0 mg/kg/injection, schedule: Q01DX009 (ip), vehicle: water): 231 % of control and 205 % of control
T/C (dose: 12.0 mg/kg/injection, schedule: Q01DX009 (ip), vehicle: water): 232 % of control and 312 % of control

CN1N=Nc2cccc3cccc1c23
T/C (dose: 25.0 mg/kg/injection, schedule: Q01DX009 (ip), vehicle: saline): 105 % of control
T/C [6]: 100 % of control
T/C [7]: 105 % of control

OC(Cc1nc2ccccc2nc1CC(O)(c1ccccc1)c1ccccc1)(c1ccccc1)c1ccccc1
T/C [8]: 90 % of control
T/C [9]: 98 % of control
T/C [2]: 106 % of control

COC(C)C(NC(=O)C1CCCN1C)C1OC(SCCOC(=O)c2ccccc2O)C(O)C(O)C1O (configuration not stated)
T/C [6]: 100 % of control
T/C [7]: 100 % of control and 101 % of control (2×)
T/C (dose: 200.0 mg/kg/injection, schedule: Q01DX009 (ip), vehicle: saline): 104 % of control

CC(C)=CC(=O)CC(O)(C(F)(F)F)C(F)(F)Cl (configuration not stated)
T/C (dose: 25.0 mg/kg/injection, schedule: Q04DX003 (ip), vehicle: saline with Tween-80): 100 % of control
T/C (dose: 50.0 mg/kg/injection, schedule: Q04DX003 (ip), vehicle: saline with Tween-80): 95 % of control
T/C [1]: 109 % of control

CNC(=O)N/N=C/c1ccccc1
T/C (dose: 75.0 mg/kg/injection, schedule: Q01DX009 (ip), vehicle: saline with Tween-80): 101 % of control
T/C (dose: 150.0 mg/kg/injection, schedule: Q01DX009 (ip), vehicle: saline with Tween-80): 97 % of control
T/C (dose: 300.0 mg/kg/injection, schedule: Q01DX009 (ip), vehicle: saline with Tween-80): 92 % of control

O=C1c2ccccc2-c2cc(-c3ccccc3)cc(-c3ccccc3)c21
T/C [3]: 100 % of control
T/C [4]: 100 % of control
T/C [5]: 100 % of control

O=C(O)C1C(C(=O)O)N2C(c3ccccc3)C(C(=O)O)C(C(=O)O)N2C1c1ccccc1 (configuration not stated)
T/C [8]: 90 % of control
T/C [9]: 90 % of control
T/C [2]: 90 % of control
